Key:
[1] = molecular target: α (avr-14b) GluClRs (Haemonchus contortus, UniProt O46124); assay: Two-electrode voltage clamp in oocytes, α GluClRs; format: cell-based, H. contortus
Method: (§1) cDNAs encoding the α (avr-14b) (pcDNA 3.1+) or β (pUNIV) GluClR subunits of H. contortus were nuclear injected into oocytes (NASCO, WI USA) or transfected into HEK293AD cells (CellBank Australia) using a calcium phosphate-DNA co-precipitate method. Synapse formation between neurons and HEK293 cells was promoted by co-transfecting neuroligin 2A or 1B and the cDNA encoding CD4 surface antigen was also added to the transfection mixture so as to identify transfected cells. The oocytes and HEK cells were used for experiments 2–3 days after the introduction of the cDNAs. All experiments were done at room temperature (22 ± 1°C).
(§2) Xenopus laevis oocytes were harvested by surgical incision. The oocytes were then defolliculated with 1.5 mg/ml collagenase for 2 hours. Free oocytes were rinsed with calcium-free OR-2 solution containing (in mM) 82.5 NaCl, 2 KCl, 1 MgCl2, 5 HEPES, pH 7.4 and mature stage V or VI oocytes were isolated for experiments. The DNAs coding for α and β subunits were nuclear injected into the oocytes using a Nanoliter 2000 microinjector (WPI Inc) at a ratio of (α:β), 1:0, 0:1, 1:1 and 1:50. The total amount of injected DNA in all combinations was 400 ng ml^−1, including the 1:50 (α:β) combination (8 ng of DNA encoding the α and 392 ng of DNA encoding β subunits). Injected oocytes were incubated in ND96 storage solution (in mM) 96 NaCl, 2 KCl, 1 MgCl2.6H2O, 1.8 CaCl2, 5 HEPES, 50 μg ml^−1 gentamicin, 2.5 sodium pyruvate, 0.5 theophylline, pH 7.4 at 16°C for 2–3 days before experiment.
(§3) For the two-electrode voltage clamp recordings, each oocyte was secured in a cell bath that was continually perfused with ND96 recording solution (ND96 storage solution without pyruvate, theophylline and gentamicin). […] The two microelectrodes contained 3 M KCl and had resistances of 0.2–2 MΩ. Recordings were done using Clampex 10.2 software (Molecular Devices) at a clamped voltage of −40 mV. Currents were low-pass filtered at 200 Hz, sampled at 2 kHz using a Gene Clamp 500B amplifier and digitised by a Digidata 1440A interface. The IVM (IVM B1a) concentration-response experiments were standardised by using an application protocol that consisted of applying increasing concentrations of IVM for, respectively, 3 min, 3 min, 3 min, 2 min, 1 min, 1 min and 0.5 min.
(§4) Group data were analysed in SigmaPlot 13.0 using one-way ANOVAs, where p < 0.05 was taken as the significance threshold and expressed as mean ± SEM. Tests for normally distributed data are built into the SigmaPlot software. Confocal images were captured and analysed with Zen 2012 SP2 (Zeiss) software. Oocyte concentration-response data were fit to a Hill equation to obtain an EC50 and Hill co-efficient for each oocyte recording. These parameters were then averaged across multiple oocyte experiments of the same type. Single channel recordings were analysed in QuB software. […] The selected critical times eliminated periods of receptor desensitisation while retaining singe receptor active periods. Mean active period duration and intra-activation open probability was estimated from each patch. Group means were obtained by averaging across multiple patches for each recording condition.

[2] = molecular target: T1, αβ (1:1) GluClRs (Haemonchus contortus, UniProt O46124+P91730); assay: Two-electrode voltage clamp in oocytes, αβ (1:1) GluClRs; format: cell-based, H. contortus; conditions: glutamate-gated current, oocytes, 1:1
Method: as §1, §2, §3
Group data were analysed in SigmaPlot 13.0 using one-way ANOVAs, where p < 0.05 was taken as the significance threshold and expressed as mean ± SEM. Tests for normally distributed data are built into the SigmaPlot software. Confocal images were captured and analysed with Zen 2012 SP2 (Zeiss) software. Oocyte concentration-response data were fit to a Hill equation to obtain an EC50 and Hill co-efficient for each oocyte recording. […] Single channel recordings were analysed in QuB software. […]

[3] = molecular target: αβ (1:50) GluClRs (Haemonchus contortus, UniProt O46124+P91730); assay: Two-electrode voltage clamp in oocytes, αβ (1:50) GluClRs; format: cell-based, H. contortus
Method: as §1, §2, §3, §4

[4] = molecular target: T2, β GluClRs (Haemonchus contortus, UniProt P91730); assay: Two-electrode voltage clamp in oocytes, β GluClRs; format: cell-based, H. contortus; conditions: glutamate-gated current, oocytes
Method: as §1
Xenopus laevis oocytes were harvested by surgical incision. The oocytes were then defolliculated with 1.5 mg/ml collagenase for 2 hours. Free oocytes were rinsed with calcium-free OR-2 solution containing (in mM) 82.5 NaCl, 2 KCl, 1 MgCl2, 5 HEPES, pH 7.4 and mature stage V or VI oocytes were isolated for experiments. The DNAs coding for α and β subunits were nuclear injected into the oocytes using a Nanoliter 2000 microinjector (WPI Inc) at a ratio of (α:β), 1:0, 0:1, 1:1 and 1:50. […]
Group data were analysed in SigmaPlot 13.0 using one-way ANOVAs, where p < 0.05 was taken as the significance threshold and expressed as mean ± SEM. […] Confocal images were captured and analysed with Zen 2012 SP2 (Zeiss) software. […] Single channel recordings were analysed in QuB software. […]

[5] = molecular target: T1, αβ (1:1) GluClRs; assay: Single channel recording, outside-out patches, αβ (1:1) GluClRs; format: cell-based, H. contortus; conditions: for mean active period duration: −70 mV
From the text: (§5) To explore whether a similar mechanism applies to β-containing GluClRs, we recorded single receptor currents in excised patches from cells transfected with either the α and β subunits (1:1) or the β subunit alone. […] By contrast, patches from cells transfected with the β subunit alone invariably opened to an amplitude of 0.4 pA (Fig 6C). Amplitude histograms confirmed two amplitude levels for αβ GluClRs and a single amplitude for the β GluClRs (Fig 6D). […] We infer that the αβ GluClRs that open to 0.7 pA likely contain a greater proportion of β subunits. This is consistent with β GluClRs having the smallest amplitude and α GluClRs having the greatest amplitude (1.8 pA) under similar recording conditions. The calculated conductance values for the corresponding amplitudes for αβ GluClRs was 15.2 pS and 8.9 pS and for the β GluClRs was 5.1 pS.
(§6) Single-channel currents were recorded from outside-out excised patches at a clamped potential of −70 mV. The single channel conductance was calculated by dividing the mean current by the net driving force at a clamped potential of ‐70 mV, after accounting for reversal and liquid junction potentials. Excised patches were continuously perfused via a gravity-fed double-barrelled glass tube, which contained extracellular bath solution containing (in mM), 140 NaCl, 5 KCl, 1 MgCl2, 2 CaCl2, 10 HEPES, and 10 D-glucose and titrated to pH 7.4. Glutamate and IVM were dissolved in this extracellular solution. Recording electrodes were pulled from borosilicate glass (G150F-3; Warner Instruments), coated with a silicone elastomer (Sylgard-184; Dow Corning) and heat-polished to a final tip resistance of 4–15 MΩ when filled with an intracellular solution containing (in mM) 145 CsCl, 2 MgCl2, 2 CaCl2, 10 HEPES, and 5 EGTA, pH 7.4. […] A 10 mM stock of IVM (Sigma-Aldrich) was dissolved in 100% DMSO and kept frozen at ‐20°C. Fresh working stocks of IVM at 5 nM were prepared by dissolving the appropriate quantity directly in extracellular solution. 100% DMSO when dissolved in extracellular solution alone at the same concentration as was present in working solutions containing 5 nM IVM had no effect on patches excised from cells transfected with GluClRs or from untransfected cells.
(§7) Currents were recorded using an Axopatch 200B amplifier (Molecular Devices), filtered at 5 kHz and digitized at 20 kHz using Clampex (pClamp 10 suite, Molecular Devices) via a Digidata 1440A digitizer.
(§8) Group data were analysed in SigmaPlot 13.0 using one-way ANOVAs, where p < 0.05 was taken as the significance threshold and expressed as mean ± SEM. Tests for normally distributed data are built into the SigmaPlot software. Confocal images were captured and analysed with Zen 2012 SP2 (Zeiss) software. Oocyte concentration-response data were fit to a Hill equation to obtain an EC50 and Hill co-efficient for each oocyte recording. These parameters were then averaged across multiple oocyte experiments of the same type. Single channel recordings were analysed in QuB software. […] Patches yielded between 30–250 individual active periods. […] The selected critical times eliminated periods of receptor desensitisation while retaining singe receptor active periods. Mean active period duration and intra-activation open probability was estimated from each patch. Group means were obtained by averaging across multiple patches for each recording condition.

[6] = molecular target: T2, β GluClRs; assay: Single channel recording, outside-out patches, β GluClRs; format: cell-based, H. contortus
From the text: as §5, §6, §7, §8

[7] = test system: Untransfected HEK293 cells; assay: Membrane partitioning, time-lapse fluorescence
Method: Two types of experiments were conducted with IVM-bdpy. The first was aimed at monitoring the time-course of membrane accumulation. Untransfected HEK293 cells were incubated in extracellular solution containing 500 nM IVM-bdpy and time-lapse images were taken over a period of 30 min (Fig 8A). The change in total membrane fluorescence averaged from 5 repeat experiments was then plotted against time and fitted to a standard exponential function (Fig 8B). In a control experiment, the corresponding accumulation rate was also determined for bdpy. To obtain the net membrane partitioning time-course for IVM-1, the data for the bdpy alone was subtracted from the data obtained for IVM-bdpy (Fig 8B). The time constants for the three plots were 6.5 min for the IVM-bdpy, 8.2 min for the bdpy fluorophore and 6.0 min for IVM-1. As the lipophilic properties of IVM and IVM-1 are similar (logPs of 5.4 and 5.1, respectively), we infer this analysis quantitatively reflects the membrane partitioning properties of IVM. […] It should be noted, however, that the IVM-bdpy experiment was done using a 100-fold higher concentration of drug in un-transfected cells and represents passive membrane accumulation, whereas the current plateau involved IVM binding to and activating receptors.
Membrane partitioning and FRAP experiments were performed on an LSM 710 inverted 2-photon confocal microscope equipped with a 40X water immersion objective lens (1.2 NA/280 μM WD/0.208 μM/pixel and a GFP/Alexa 488 filter set. Untransfected HEK293 cells at a confluency of 50–75% were plated onto 35-mm glass bottom dishes one day prior to experiments. The IVM-bdpy fluorophore was dissolved in 100% DMSO and stored at ‐20°C at a concentration of 24 mM.
A Mai Tai eHP 2-photon laser/760-1040 nm was used as an excitation source (power at 920 nm) for the FRAP experiments. The laser and bleaching power were set to 7% and 75% respectively. Membrane partitioning images were taken for 35 min at 0.5 Hz after replacing the cell medium (extracellular solution) with one containing the IVM-bdpy probe at a concentration of 500 nM. FRAP images were taken at a frequency of 0.5 Hz for 10 min after a 30 min equilibration period in 500 nM IVM-bdpy.

[8] = Lipophilicity (logP); format: physicochemical

Sequence of αβ (1:50) GluClRs (O46124 entry or part of it): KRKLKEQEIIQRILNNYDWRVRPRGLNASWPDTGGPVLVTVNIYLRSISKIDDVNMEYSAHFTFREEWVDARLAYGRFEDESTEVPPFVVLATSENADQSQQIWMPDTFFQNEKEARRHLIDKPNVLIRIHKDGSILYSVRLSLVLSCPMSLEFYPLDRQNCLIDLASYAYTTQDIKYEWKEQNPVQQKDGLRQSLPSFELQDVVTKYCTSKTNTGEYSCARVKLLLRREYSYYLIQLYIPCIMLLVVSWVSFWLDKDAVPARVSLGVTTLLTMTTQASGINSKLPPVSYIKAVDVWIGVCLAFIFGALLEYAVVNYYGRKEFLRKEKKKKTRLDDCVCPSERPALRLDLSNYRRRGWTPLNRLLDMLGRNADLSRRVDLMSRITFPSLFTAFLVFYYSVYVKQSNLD
Sequence of αβ (1:50) GluClRs (P91730 19-432): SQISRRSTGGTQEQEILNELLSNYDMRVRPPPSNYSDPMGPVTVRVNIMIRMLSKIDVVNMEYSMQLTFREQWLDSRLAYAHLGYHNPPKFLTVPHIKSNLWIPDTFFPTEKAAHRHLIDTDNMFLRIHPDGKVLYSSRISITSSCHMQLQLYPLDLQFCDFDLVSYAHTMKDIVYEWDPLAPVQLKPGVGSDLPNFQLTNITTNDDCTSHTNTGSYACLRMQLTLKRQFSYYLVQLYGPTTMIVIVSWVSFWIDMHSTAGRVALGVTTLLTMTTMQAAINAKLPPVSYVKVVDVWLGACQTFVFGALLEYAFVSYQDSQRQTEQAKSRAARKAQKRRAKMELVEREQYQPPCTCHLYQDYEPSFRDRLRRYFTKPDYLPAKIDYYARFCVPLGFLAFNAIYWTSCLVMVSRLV
T1 sequence (P91730 19-432): as above
T1 sequence (O46124 entry or part of it): as the sequence (O46124 entry or part of it) above
T2 sequence (P91730 19-432): as the sequence (P91730 19-432) above
Sequence of α (avr-14b) GluClRs (O46124 entry or part of it): as the sequence (O46124 entry or part of it) above

Row | SMILES | maximal current ([1]; glutamate-gated current, oocytes) | maximal current [2] | maximal current ([3]; glutamate-gated current, oocytes, 1:50) | maximal current [4] | intra-activation open probability (PO) ([5]; 2 μM glutamate) | mean active period duration ([5]; 2 μM glutamate, both stoichiometries pooled) | intra-activation open probability (PO) ([5]; 3 mM glutamate) | mean active period duration ([5]; 3 mM glutamate, pooled) | intra-activation open probability (PO) ([6]; 2 μM glutamate) | mean active period duration ([6]; 2 μM glutamate, −70 mV) | intra-activation open probability (PO) ([6]; 3 mM glutamate) | mean active period duration ([6]; 3 mM glutamate) | efficacy (maximal current normalised to saturating glutamate) compared to IVM ([1]; 30 nM, normalised to 5 mM glutamate) | efficacy (maximal current normalised to saturating glutamate) compared to IVM ([3]; 30 nM, normalised to 5 mM glutamate, αβ 1:50) | differential efficacy between α and αβ (1:50) GluClRs ([3]; 30 nM, α versus αβ (1:50)) | net membrane partitioning time constant ([7]; bdpy data subtracted from IVM-bdpy data) | time to plateau of membrane partitioning ([7]; subtraction plot (IVM-bdpy minus bdpy)) | logP [8]
1 | N[C@@H](CCC(=O)O)C(=O)O [Glutamate, L-glutamate] | 3.7 ± 0.8 μA | 2.0 ± 0.4 μA | 2.2 ± 0.4 μA | 1.9 ± 0.3 μA | 0.54 ± 0.06 | 40 ± 10 ms | 0.83 ± 0.03 | 146 ± 15 ms | 0.63 ± 0.07 | 7.5 ± 1.8 ms | 0.70 ± 0.11 | 164 ± 31 ms |  |  |  |  |  | 
2 | CC[C@H](C)[C@H]1O[C@]2(CC[C@@H]1C)C[C@@H]1C[C@@H](C/C=C(\C)[C@@H](O)[C@@H](C)/C=C/C=C3\CO[C@@H]4[C@H](O)C(C)=C[C@@H](C(=O)O1)[C@]34O)O2 [IVM-1] |  |  |  |  |  |  |  |  |  |  |  |  | significantly less efficacious than IVM | preservation of efficacy | retained differential efficacy | 6.0 min | 18 to 20 min | 5.1

Source: paper PMC6368337, “GluClR-mediated inhibitory postsynaptic currents reveal targets for ivermectin and potential mechanisms of ivermectin resistance” (PLoS Pathogens, 2019)
